Measurements taken from US10363239B2, “Method for inhibiting growth of cancer cells” (Pain Therapeutics, Inc., priority 2013, dated 2019).
Like-named read-outs stand apart in the source and are kept apart here.

Legend:
mu opiate receptor (MOR) = test: MOR agonist activity using [35S]GTPγS binding assay in striatal membranes; assay type: biochemical; settings: for MOR agonist activity ([35S]GTPγS binding), FLNA-Binding Compound as Agonist 1 μM + BFNA: 1 μM compound + 1 μM β-funaltrexamine
Outline: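 Striatal membranes (200 μg) were preincubated 5 min at 30 °C in HEPES pH 7.5 with 100 mM NaCl, 1 mM MgCl2 and 0.5 nM [35S]GTPγS, then 5 min more with 0.1–10 μM compound. Gαo was immunoprecipitated and bound radioactivity counted by scintillation.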

[1] = target: FLNA pentapeptide of SEQ ID NO: 1 (Bn-VAKGL) (Homo sapiens, UniProt P21333); test: FITC-NLX-based FLNA screening assay (inhibition of FITC-naloxone binding to Bn-VAKGL on streptavidin plates); settings: 10 nM FITC-NLX
[2] = Series C-1, 0.1 μM compound, relative to DAMGO
[3] = Series C-1, 0.1 μM compound, [35S]GTPγS binding to Gαo, striatal membranes
[4] = Series C-1, 1 μM compound + 1 μM β-FNA
[5] = Series C-1, 1 μM compound + β-FNA, relative to DAMGO + BFNA
[6] = Series C-1, 1 μM compound, relative to DAMGO
[7] = Series C-1, 1 μM compound, [35S]GTPγS binding to Gαo, striatal membranes
[8] = read-out: Percent Binding Inhibition, FLNA-binding compound 0.01 μM
[9] = read-out: Percent Binding Inhibition, FLNA-binding compound 0.1 μM
[10] = read-out: Percent Binding Inhibition, FLNA-binding compound 1 μM
[11] = 0.1 μM compound relative to DAMGO
[12] = 1 μM compound + BFNA relative to DAMGO + BFNA
[13] = 1 μM compound relative to DAMGO
[14] = FLNA-binding compound 0.01 μM, read-out: Percent Binding Inhibition
[15] = FLNA-binding compound 0.1 μM, read-out: Percent Binding Inhibition
[16] = FLNA-binding compound 1 μM, read-out: Percent Binding Inhibition
[17] = Series C-2, 0.1 μM compound, relative to DAMGO
[18] = Series C-2, 0.1 μM compound, [35S]GTPγS binding to Gαo, striatal membranes
[19] = Series C-2, 1 μM compound + 1 μM β-FNA
[20] = Series C-2, 1 μM compound + β-FNA, relative to DAMGO + BFNA
[21] = Series C-2, 1 μM compound, relative to DAMGO
[22] = Series C-2, 1 μM compound, [35S]GTPγS binding to Gαo, striatal membranes

| Compound | % DAMGO (0.1 μM) (mu opiate receptor (MOR); [2]) | Concentration of FLNA-Binding Compound as Agonist 0.1 μM (mu opiate receptor (MOR); [3]) | Concentration of FLNA-Binding Compound as Agonist 1 μM + BFNA (mu opiate receptor (MOR); [4]) | % DAMGO + BFNA (mu opiate receptor (MOR); [5]) | % DAMGO (1 μM) (mu opiate receptor (MOR); [6]) | Concentration of FLNA-Binding Compound as Agonist 1 μM (mu opiate receptor (MOR); [7]) | inhibition at 0.01 µM [1, 8] | inhibition at 0.1 µM [1, 9] | inhibition at 1 µM [1, 10] | MOR agonist activity ([35S]GTPγS binding), FLNA-Binding Compound as Agonist 0.1 μM (mu opiate receptor (MOR); 0.1 μM compound) | % DAMGO (0.1 μM) (mu opiate receptor (MOR); [11]) | MOR agonist activity ([35S]GTPγS binding), FLNA-Binding Compound as Agonist 1 μM (mu opiate receptor (MOR); 1 μM compound) | MOR agonist activity ([35S]GTPγS binding), FLNA-Binding Compound as Agonist 1 μM + BFNA (mu opiate receptor (MOR)) | % DAMGO + BFNA (mu opiate receptor (MOR); [12]) | % DAMGO (1 μM) (mu opiate receptor (MOR); [13]) | inhibition at 0.01 µM [1, 14] | inhibition at 0.1 µM [1, 15] | inhibition at 1 µM [1, 16] | other results |
| --- | --- | --- | --- | --- | --- | --- | --- | --- | --- | --- | --- | --- | --- | --- | --- | --- | --- | --- | --- |
| O=S(=O)(c1ccc(Br)cc1C(F)(F)F)N1CCC2(CC1)OCCN2S(=O)(=O)c1ccc(Br)cc1C(F)(F)F [Compound C0068] | 53.4% | 107.2% | 165.9% | 307.8% | 83.8% | 263.1% | 53.7% | 58.6% | 62.2% |  |  |  |  |  |  |  |  |  |  |
| O=S(=O)(c1ccc(C(F)(F)F)cc1)N1CCC2(CC1)OCCN2S(=O)(=O)c1ccc(C(F)(F)F)cc1 [Compound C0012] | 54.8% | 96.8% | 184.4% | 280.7% | 86.7% | 224.8% | 26.3% | 39.5% | 46.4% |  |  |  |  |  |  |  |  |  |  |
| CC1CCC(C(C)C)C(OCC(O)CN2CCCc3ccccc32)C1 (stereo not drawn) [Compound A0068] |  |  |  |  |  |  | 51.9% | 54.2% | 58.3% | 73.9% | 36.8% | 110.4% | 98.1% | 182.0% | 35.2% |  |  |  |  |
| O=S(=O)(c1cccs1)N1CCC2(CC1)OCCN2S(=O)(=O)c1cccs1 [Compound C0141M] | 109.9% | 161.5% | 47.9% | 121.9% | 105.8% | 213.9% | 33.1% | 39% | 46.9% |  |  |  |  |  |  |  |  |  |  |
| CC1CN(CC(O)COc2cccc(N(C)C)c2)CC(C)O1 (stereo not drawn) [Compound A0042] |  |  |  |  |  |  |  |  |  | 147.5% | 75.2% | 233.1% | 89.5% | 121.1% | 84.5% | 47.2% | 48.3% | 55.8% |  |
| OC(COc1cccc(C(F)(F)F)c1)CN1CCc2ccccc2C1 (stereo not drawn) [Compound A0054] |  |  |  |  |  |  |  |  |  | 74.9% | 44.4% | 159.2% | 114.1% | 348.9% | 63.9% | 28.7% | 35.8% | 41.4% |  |
| O=[N+]([O-])c1ccc(S(=O)(=O)N2CCC3(CC2)NCCCO3)cc1 [Compound C0045] |  |  |  |  |  |  |  |  |  |  |  |  |  |  |  | 39.1% | 48.9% | 53.7% | % DAMGO (0.1 μM) (mu opiate receptor (MOR); [17]): 88.3%; MOR agonist activity, percent [35S]GTPγS binding at the stated compound concentration (mu opiate receptor (MOR); [18]): 149.2%; MOR agonist activity, percent [35S]GTPγS binding at the stated compound concentration (mu opiate receptor (MOR); [19]): 105.3%; % DAMGO + BFNA (mu opiate receptor (MOR); [20]): 634.3%; % DAMGO (1 μM) (mu opiate receptor (MOR); [21]): 109.1%; MOR agonist activity, percent [35S]GTPγS binding at the stated compound concentration (mu opiate receptor (MOR); [22]): 238.8% |
| CC1CN(CC(O)COc2ccc(Br)c(Cl)c2)CC(C)O1 (stereo not drawn) [Compound A0045] |  |  |  |  |  |  |  |  |  | 143.9% | 73.3% | 274.2% | 99.2% | 134.2% | 99.3% | 28.1% | 35% | 37.8% |  |
| CC(=O)c1ccc(C(=O)N2CCOC23CCN(S(=O)(=O)c2ccc(C(C)=O)cc2)CC3)cc1 [Compound C0053] | 71.7% | 104.0% | 93.1% | 211.6% | 67.5% | 157.2% |  |  |  |  |  |  |  |  |  | 28.9% | 33.8% | 39.3% |  |
| O=C1CN(Cc2ccccc2)C2(CCN(CC3CC3)CC2)N1 [Compound C0125M] |  |  |  |  |  |  | 54.2% | 59.7% | 63.3% |  |  |  |  |  |  |  |  |  | % DAMGO (0.1 μM) (mu opiate receptor (MOR); [17]): 89.1%; MOR agonist activity, percent [35S]GTPγS binding at the stated compound concentration (mu opiate receptor (MOR); [18]): 168.6%; MOR agonist activity, percent [35S]GTPγS binding at the stated compound concentration (mu opiate receptor (MOR); [19]): 159.7%; % DAMGO + BFNA (mu opiate receptor (MOR); [20]): 329.3%; % DAMGO (1 μM) (mu opiate receptor (MOR); [21]): 78.6%; MOR agonist activity, percent [35S]GTPγS binding at the stated compound concentration (mu opiate receptor (MOR); [22]): 195.2% |
| CC1CCC(C(C)C)C(OCC(O)CN2CCC2)C1 (stereo not drawn) [Compound A0015] |  |  |  |  |  |  | 36.3% | 46.8% | 55% | 110.9% | 64.8% | 150.1% | 62.5% | 120.0% | 56.2% |  |  |  |  |
| COc1cc(F)ccc1C(=O)CC1c2c(cc3c(c2OC)OCO3)CC[N+]1(C)C (stereo not drawn) [Compound B0007] |  |  |  |  |  |  | 43.6% | 53.1% | 57.3% |  |  |  |  |  |  |  |  |  | % DAMGO (0.1 μM) (mu opiate receptor (MOR); Series B, 0.1 μM compound, relative to DAMGO): 95.3%; MOR agonist activity, percent [35S]GTPγS binding at the stated compound concentration (mu opiate receptor (MOR); Series B, 0.1 μM compound, [35S]GTPγS binding to Gαo, striatal membranes): 168.3%; MOR agonist activity, percent [35S]GTPγS binding at the stated compound concentration (mu opiate receptor (MOR); Series B, 1 μM compound + 1 μM β-FNA): 64.5%; % DAMGO + BFNA (mu opiate receptor (MOR); Series B, 1 μM compound + β-FNA, relative to DAMGO + BFNA): 98.2%; % DAMGO (1 μM) (mu opiate receptor (MOR); Series B, 1 μM compound, relative to DAMGO): 86.1%; MOR agonist activity, percent [35S]GTPγS binding at the stated compound concentration (mu opiate receptor (MOR); Series B, 1 μM compound, [35S]GTPγS binding to Gαo, striatal membranes): 223.3% |
| O=S(=O)(c1ccc(C(F)(F)F)cc1Br)N1CCC2(CC1)OCCN2S(=O)(=O)c1ccc(C(F)(F)F)cc1Br [Compound C0071] | 160.5% | 276.3% | 177.1% | 513.3% | 161.7% | 355.3% | 39.1% | 49.6% | 55.2% |  |  |  |  |  |  |  |  |  |  |
| O=S(=O)(c1ccc(Br)cc1Br)N1CCC2(CC1)OCCN2S(=O)(=O)c1ccc(Br)cc1Br [Compound C0070] | 96.2% | 165.6% | 114.2% | 331.0% | 95.9% | 210.8% |  |  |  |  |  |  |  |  |  | 42.6% | 50.6% | 53.6% |  |
| O=S(=O)(c1cccc2cccnc12)N1CCC2(CC1)OCCN2S(=O)(=O)c1cccc2cccnc12 [Compound C0143M] | 47.1% | 81.0% | 86.5% | 94.7% | 59.3% | 193.3% | 45.3% | 48.4% | 57.8% |  |  |  |  |  |  |  |  |  | % DAMGO (0.1 μM) (mu opiate receptor (MOR); [17]): 47.1%; Concentration of FLNA-Binding Compound as Agonist 0.1 μM (mu opiate receptor (MOR); [18]): 81.0%; Concentration of FLNA-Binding Compound as Agonist 1 μM + BFNA (mu opiate receptor (MOR); [19]): 86.5%; % DAMGO + BFNA (mu opiate receptor (MOR); [20]): 94.7%; % DAMGO (1 μM) (mu opiate receptor (MOR); [21]): 59.3%; Concentration of FLNA-Binding Compound as Agonist 1 μM (mu opiate receptor (MOR); [22]): 193.3% |
| NS(=O)(=O)c1ccc(S(=O)(=O)N2CCC3(CC2)OCCN3S(=O)(=O)c2ccc(S(N)(=O)=O)cc2)cc1 [Compound C0034] | 61.3% | 103.6% | 80.1% | 482.5% | 76.7% | 167.9% | 29.6% | 38.3% | 44.8% |  |  |  |  |  |  |  |  |  |  |
| CC1CCC(C(C)C)C(OCC(O)CN2CCOCC2)C1 (stereo not drawn) [Compound A0004] |  |  |  |  |  |  |  |  |  | 97.4% | 55.2% | 144.2% | 86.0% | 130.9% | 55.6% | 40% | 43.7% | 47.6% |  |
